According to article PMC4988470, “Identification of the putative binding pocket of valerenic acid on GABAA receptors using docking studies and site‐directed mutagenesis” (British Journal of Pharmacology, 2015):

Columns and labels:
[1] = molecular target: α1I227Aβ3γ2S GABAA receptor (Rattus norvegicus, UniProt P62813+P63079, I254A); experiment: I GABA enhancement by VA, two-microelectrode voltage clamp in Xenopus oocytes; format: cell-based
Excerpt: (§1) […]. […] Concentration‐response curves were generated, and the data were fitted by non‐linear regression analysis using ORIGIN software (OriginLab Corporation, Northampton, MA, USA). Data were fitted to the Hill equation: y=min+max−min*x^n/k^nH+x^nH k corresponds to the EC50 value; x‐values are logs of concentration, and n H is the Hill coefficient. Each data point represents the mean ± SEM from ≥3 oocytes and two oocyte batches.
(§2) Follicle membranes covering oocytes were enzymatically digested with 2 mg·mL^−1 collagenase (type 1A). Mutations β3T262A, β3T262S, β3N265S, β3T266A, β3R269A, β3M286A, β3M286W and β3F289S in the β3‐subunit and α1I227A, α1L231A, α1M235A, α1M235W and α1L268A in the α1 subunit were introduced by site‐directed mutagenesis using the QuikChange mutagenesis kit (Agilent Technologies, Vienna, Austria). The coding regions of plasmids were sequenced before experimental use. After cDNA linearization, capped cRNA transcripts were produced using the mMESSAGE mMACHINE® T7 transcription kit (Life Technologies). Capped transcripts were polyadenylated using yeast poly(A)polymerase, diluted in nuclease‐free water and stored before injection at −80°C.
(§3) One day after isolation, the oocytes were injected with about 10–50 nL of nuclease‐free water containing the different rat cRNAs (100–2000 ng·μL^−1 per subunit). For expression of wild‐type α1β3γ2S and mutant receptors, cRNAs were mixed in a ratio of 1:1:10 (Boileau et al., 2002). Electrophysiological experiments were performed using the two‐microelectrode voltage clamp technique at a holding potential of −70 mV making use of a TURBO TEC 01C amplifier (NPI Electronic, Tamm, Germany) and an Axon Digidata 1322A interface (Molecular Devices, Sunnyvale, CA, USA). Data acquisition was carried out using PCLAMP v.9.2 (Molecular Devices, Sunnyvale, CA). The bath solution contained 90 mM NaCl, 1 mM KCl, 1 mM MgCl2, 1 mM CaCl2 and 5 mM HEPES (adjusted to pH 7.4 using 1 M NaOH). Microelectrodes were filled with 2 M KCl and had resistances between 1 and 3 MΩ (Khom et al., 2006).
(§4) Drug or control solutions were applied by means of a TECAN Miniprep 60 permitting automation of the experiments. […] […]. Oocytes with maximal current amplitudes >5 μA were discarded to exclude voltage‐clamp errors (Khom et al., 2006).

[2] = molecular target: α1L231Aβ3γ2S GABAA receptor (Rattus norvegicus, UniProt P62813+P63079, L258A); experiment: as above; format: cell-based
Chain of α1L231Aβ3γ2S GABAA receptor (P62813 28-455 L258A): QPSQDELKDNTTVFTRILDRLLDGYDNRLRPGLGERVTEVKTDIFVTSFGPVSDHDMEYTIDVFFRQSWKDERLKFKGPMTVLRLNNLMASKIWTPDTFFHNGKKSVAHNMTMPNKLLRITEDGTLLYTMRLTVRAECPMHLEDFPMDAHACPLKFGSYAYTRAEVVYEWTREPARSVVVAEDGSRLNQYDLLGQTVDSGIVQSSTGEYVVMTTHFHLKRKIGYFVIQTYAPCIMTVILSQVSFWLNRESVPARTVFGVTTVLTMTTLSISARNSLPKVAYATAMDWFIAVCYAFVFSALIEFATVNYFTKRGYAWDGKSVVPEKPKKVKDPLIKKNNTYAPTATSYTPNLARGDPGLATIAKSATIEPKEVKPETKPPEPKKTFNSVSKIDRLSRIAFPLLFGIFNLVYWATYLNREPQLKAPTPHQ
Chain of α1L231Aβ3γ2S GABAA receptor (P63079 26-473): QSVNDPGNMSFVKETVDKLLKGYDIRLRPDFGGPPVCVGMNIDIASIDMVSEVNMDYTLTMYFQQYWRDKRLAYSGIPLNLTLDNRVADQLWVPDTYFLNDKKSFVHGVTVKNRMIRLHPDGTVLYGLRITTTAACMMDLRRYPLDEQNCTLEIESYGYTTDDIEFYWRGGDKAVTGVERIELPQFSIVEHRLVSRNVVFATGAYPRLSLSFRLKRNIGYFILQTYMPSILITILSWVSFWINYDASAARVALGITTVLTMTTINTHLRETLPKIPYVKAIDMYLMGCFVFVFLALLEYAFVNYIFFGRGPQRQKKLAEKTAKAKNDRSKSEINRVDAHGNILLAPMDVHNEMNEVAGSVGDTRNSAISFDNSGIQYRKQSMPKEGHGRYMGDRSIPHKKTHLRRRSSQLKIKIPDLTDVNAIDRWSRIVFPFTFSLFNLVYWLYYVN
Chain of α1L231Aβ3γ2S GABAA receptor (P18508 39-466 partner): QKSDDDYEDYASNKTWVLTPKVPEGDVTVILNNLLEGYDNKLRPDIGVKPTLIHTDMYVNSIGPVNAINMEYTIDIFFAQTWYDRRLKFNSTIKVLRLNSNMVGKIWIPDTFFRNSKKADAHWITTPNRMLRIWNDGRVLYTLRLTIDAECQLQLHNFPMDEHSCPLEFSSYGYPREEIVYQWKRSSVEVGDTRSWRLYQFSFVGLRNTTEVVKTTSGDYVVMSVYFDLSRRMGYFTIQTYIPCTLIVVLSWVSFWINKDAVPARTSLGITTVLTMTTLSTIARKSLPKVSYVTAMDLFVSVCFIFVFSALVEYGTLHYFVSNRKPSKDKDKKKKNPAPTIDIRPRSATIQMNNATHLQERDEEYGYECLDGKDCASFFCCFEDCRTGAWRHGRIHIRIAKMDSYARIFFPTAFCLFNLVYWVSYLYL
Excerpt: as §1, §2, §3, §4

[3] = molecular target: α1L268Aβ3γ2S GABAA receptor (Rattus norvegicus, UniProt P62813+P63079, L295A); experiment: as above; format: cell-based
Excerpt: as §1, §2, §3, §4

[4] = molecular target: α1M235Aβ3γ2S GABAA receptor (Rattus norvegicus, UniProt P62813+P63079, M262A); experiment: as above; format: cell-based
Excerpt: as §1, §2, §3, §4

[5] = molecular target: α1M235Wβ3γ2S GABAA receptor (Rattus norvegicus, UniProt P62813+P63079, M262W); experiment: as above; format: cell-based
Chain of α1M235Wβ3γ2S GABAA receptor (P62813 28-455 M262W): as the sequence (P62813 28-455 L258A) above, with A231L, M235W counted along it
Chain of α1M235Wβ3γ2S GABAA receptor (P63079 26-473): as the sequence (P63079 26-473) above
Chain of α1M235Wβ3γ2S GABAA receptor (P18508 39-466 partner): as the sequence (P18508 39-466 partner) above
Excerpt: as §1, §2, §3, §4

[6] = molecular target: α1β3F289Sγ2S GABAA receptor (Rattus norvegicus, UniProt P62813+P63079, F314S); experiment: as above; format: cell-based
Excerpt: as §1, §2, §3, §4

[7] = molecular target: α1β3M286Aγ2S GABAA receptor (Rattus norvegicus, UniProt P62813+P63079, M311A); experiment: as above; format: cell-based
Excerpt: as §1, §2, §3, §4

[8] = molecular target: α1β3M286Wγ2S GABAA receptor (Rattus norvegicus, UniProt P62813+P63079, M311W); experiment: as above; format: cell-based
Excerpt: as §1, §2, §3, §4

[9] = molecular target: α1β3N265Sγ2S GABAA receptor (Rattus norvegicus, UniProt P62813+P63079, N290S); experiment: as above; format: cell-based
Excerpt: as §1, §2, §3, §4

[10] = molecular target: α1β3R269Aγ2S GABAA receptor (Rattus norvegicus, UniProt P62813+P63079, R294A); experiment: as above; format: cell-based
Excerpt: as §1, §2, §3, §4

[11] = molecular target: α1β3T262Aγ2S GABAA receptor (Rattus norvegicus, UniProt P62813+P63079, T287A); experiment: as above; format: cell-based
Excerpt: as §1, §2, §3, §4

[12] = molecular target: α1β3T262Sγ2S GABAA receptor (Rattus norvegicus, UniProt P62813+P63079, T287S); experiment: as above; format: cell-based
Excerpt: as §1, §2, §3, §4

[13] = molecular target: α1β3T266Aγ2S GABAA receptor (Rattus norvegicus, UniProt P62813+P63079, T291A); experiment: as above; format: cell-based
Excerpt: as §1, §2, §3, §4

α1β3γ2S GABAA receptor = α1β3γ2S GABAA receptor (Rattus norvegicus, UniProt P62813+P63079); experiment: as above; format: cell-based
Excerpt: as §1, §2, §3, §4

GABAA receptors = test system: GABAA receptors; set-up: method as in Khom et al., 2007; details: high concentrations; ref Khom et al., 2007; cited from earlier work
β1‐containing channels = test system: β1‐containing channels; set-up: method as in Khom et al., 2007; details: ref Khom et al., 2007; cited from earlier work
[14] = read-out: Emax of I GABA enhancement

Chain of α1I227Aβ3γ2S GABAA receptor (P62813 28-455 I254A): as the sequence (P62813 28-455 L258A) above, with I227A, A231L counted along it
Chain of α1I227Aβ3γ2S GABAA receptor (P63079 26-473): as the sequence (P63079 26-473) above
Chain of α1I227Aβ3γ2S GABAA receptor (P18508 39-466 partner): as the sequence (P18508 39-466 partner) above

Structure (SMILES): CC1=C2[C@H](/C=C(\C)C(=O)O)CC[C@@H](C)[C@H]2CC1 [VA, valerenic acid]
- EC50 [1]: 40.8 ± 8.4 µM
- Emax [1, 14]: 776 ± 60%
- n H (Hill coefficient, I GABA enhancement) ([1]; α1I227Aβ3γ2S, GABA EC3–7, mean ± SEM): 1.13 ± 0.08
- EC50 [2]: 18.8 ± 4.4 µM
- Emax [2, 14]: 703 ± 82%
- n H (Hill coefficient, I GABA enhancement) ([2]; α1L231Aβ3γ2S, GABA EC3–7, mean ± SEM): 1.37 ± 0.18
- EC50 [3]: 19.9 ± 5.6 µM
- Emax [3, 14]: 582 ± 80%
- n H (Hill coefficient, I GABA enhancement) ([3]; α1L268Aβ3γ2S, GABA EC3–7, mean ± SEM): 1.06 ± 0.13
- EC50 [4]: 21.1 ± 2.8 µM
- Emax [4, 14]: 546 ± 28%
- n H (Hill coefficient, I GABA enhancement) ([4]; α1M235Aβ3γ2S, GABA EC3–7, mean ± SEM): 1.19 ± 0.08
- EC50 [5]: 24.3 ± 7.7 µM
- Emax [5, 14]: 193 ± 16%
- n H (Hill coefficient, I GABA enhancement) ([5]; α1M235Wβ3γ2S, GABA EC3–7, mean ± SEM): 1.37 ± 0.34
- EC50 [6]: 181 ± 21.6 µM
- Emax [6, 14]: 222 ± 12%
- rightward shift of VA's potency versus wild type ([6]; α1β3F289Sγ2S versus α1β3γ2S): ninefold
- n H (Hill coefficient, I GABA enhancement) ([6]; α1β3F289Sγ2S, GABA EC3–7, mean ± SEM): 1.20 ± 0.07
- EC50 [7]: 60.1 ± 18.5 µM
- Emax [7, 14]: 283 ± 52%
- n H (Hill coefficient, I GABA enhancement) ([7]; α1β3M286Aγ2S, GABA EC3–7, mean ± SEM): 1.47 ± 0.21
- Emax [8, 14]: 67 ± 35%
- modulatory effects on I GABA (in words) ([8]; α1β3M286Wγ2S, GABA EC3–7): did not display any significant modulatory effects
- EC50 [9]: 143 ± 67.5 µM
- Emax [9, 14]: 134 ± 32%
- reduction of efficacy of IGABA enhancement versus wild type ([9]; α1β3N265Sγ2S versus α1β3γ2S): approximately fivefold reduced
- reduction of potency of IGABA enhancement versus wild type ([9]; α1β3N265Sγ2S versus α1β3γ2S): sevenfold reduction
- n H (Hill coefficient, I GABA enhancement) ([9]; α1β3N265Sγ2S, GABA EC3–7, mean ± SEM): 1.33 ± 0.39
- EC50 [10]: 84.1 ± 14.7 µM
- Emax [10, 14]: 259 ± 22%
- n H (Hill coefficient, I GABA enhancement) ([10]; α1β3R269Aγ2S, GABA EC3–7, mean ± SEM): 1.63 ± 0.19
- reduction of efficacy of I GABA enhancement versus wild type ([10]; β3R269 mutated to alanine versus wild type): approximately 50%
- EC50 [11]: 2.5 ± 0.8 µM
- Emax [11, 14]: 573 ± 96%
- n H (Hill coefficient, I GABA enhancement) ([11]; α1β3T262Aγ2S, GABA EC3–7, mean ± SEM): 1.00 ± 0.16
- EC50 [12]: 3.4 ± 0.7 µM
- Emax [12, 14]: 578 ± 42%
- n H (Hill coefficient, I GABA enhancement) ([12]; α1β3T262Sγ2S, GABA EC3–7, mean ± SEM): 0.85 ± 0.15
- EC50 [13]: 7.5 ± 1.5 µM
- Emax [13, 14]: 666 ± 55%
- n H (Hill coefficient, I GABA enhancement) ([13]; α1β3T266Aγ2S, GABA EC3–7, mean ± SEM): 1.26 ± 0.1
- EC50 (α1β3γ2S GABAA receptor): 20.2 ± 5.2 µM
- Emax (α1β3γ2S GABAA receptor; [14]): 632 ± 88%
- n H (Hill coefficient, I GABA enhancement) (α1β3γ2S GABAA receptor; α1β3γ2S, GABA EC3–7, mean ± SEM): 1.50 ± 0.29
- concentration at which VA directly activates GABAA receptors (GABAA receptors): ≥ 30 µM
- concentration at which VA inhibits GABAA receptors (GABAA receptors): ≥ 100 µM
- effects on β1‐containing channels (β1‐containing channels): negligible effects
